Test results from patent US10392348B2, “2-oxo-3,4-dihydroquinoline compounds as plant growth regulators” (Syngenta Participations AG, priority 2015, dated 2019).
Where two headings read alike, the source gives them in different places. Blank lines part the entries; values can stand above or below the compound they belong to.

Legend:
[1] = test system: corn plants (variety NK OCTET); assay: Reduced plant water use in corn (foliar spray, repeated weighing of pots); assay type: in vivo; conditions: Zea mays, corn plants sprayed at 500 μM, average of 6 pots
Experimental: Compounds were tested for their effect on reducing plant water use as follows. The compounds were applied by foliar spray to 12 day old corn plants (variety NK OCTET) grown in controlled environment plant growth chambers. All compounds were applied using an emulsifiable concentrate (EC) formulation that was diluted to the desired concentrations with water containing 0.4% of the adjuvant rape seed methyl ester. Plant water use during the day was assessed by repeated weighing of the pots in which the plants were grown before and after application of the compounds at the indicated times (expressed in days after application (DAA)). The water use data before application was used to correct any differences in water use arising due to non-treatment effects (e.g. due to differences in plant size). The untransformed water use values were subjected to an analysis of covariance, fitting the effect of treatment and using the baseline water use 1 day before application as a covariate. Application of the chemicals (0 DAA) takes place approximately between 08:00 and 09:30 a.m. WU is measured within day time (chamber light is on 06:00 to 20:00) at these timepoints: 0 DAA a.m. (10:30-12:50), 0 DAA p.m. (14:00-19:50), 1 DAA a.m. (07:30-12:50), 1 DAA p.m. (14:00-19:50), 2 DAA a.m. (07:30-12:50) and 2 DAA p.m. (14:00-19:50). The cumulative total WU (0-2.5 DAA) is calculated by summing the WU data mentioned above.

[2] = test system: soybean plants (variety S20-G7); assay: Reduced plant water use in soybean (foliar spray, repeated weighing of pots); assay type: in vivo; conditions: vs negative control; for change in vivo at 500 µM / change in vivo at 31.25 µM / change in vivo at 125 µM: Glycine max, foliar; for % WU 0 DAA AM*: 0 DAA a.m.
Method in brief: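 Compounds in blank EC formulation diluted in water with EXTRAVON 1 g/20 L, foliar-sprayed on 12-day-old soybean in growth chambers. Water use from repeated pot weighing at a.m./p.m. periods over 0-2 DAA, summed to cumulative 0-2.5 DAA; ANCOVA with pre-application baseline covariate, relative to blank-formulation control.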

[3] = 0 h, water use during day time vs negative control, 0 DAA a.m. (10:30-12:50), read-out: % WU 0 DAA AM
[4] = 0 h, water use during day time vs negative control, 0 DAA p.m. (14:00-19:50), read-out: % WU 0DAA PM
[5] = 24 h, water use during day time vs negative control, 1 DAA a.m. (07:30-12:50), read-out: % WU 1DAA AM
[6] = 24 h, water use during day time vs negative control, 1 DAA p.m. (14:00-19:50), read-out: % WU 1DAA PM
[7] = 48 h, water use during day time vs negative control, 2 DAA a.m. (07:30-12:50), read-out: % WU 2 DAA AM
[8] = 48 h, water use during day time vs negative control, 2 DAA p.m. (14:00-19:50), read-out: % WU 2 DAA PM
[9] = 60 h, cumulative total water use 0-2.5 DAA (sum of the time points) vs negative control, read-out: % WU Total 0 to 2.5 DAA
[10] = 0 h, Table B1, sprayed at 500 μM, 0 DAA a.m. (10:30-12:50), read-out: % WU 0 DAA AM
[11] = 24 h, Table B1, sprayed at 500 μM, 1 DAA a.m. (7:30-12:50), read-out: % WU 1DAA AM
[12] = 24 h, Table B1, sprayed at 500 μM, 1 DAA p.m. (14:00-19:50), read-out: % WU 1DAA PM
[13] = 48 h, Table B1, sprayed at 500 μM, 2 DAA a.m. (07:30-12:50), read-out: % WU 2 DAA AM
[14] = 48 h, Table B1, sprayed at 500 μM, 2 DAA p.m. (14:00-19:50), read-out: % WU 2 DAA PM
[15] = 60 h, Table B1, sprayed at 500 μM, cumulative total WU (0-2.5 DAA), read-out: % WU Total 0 to 2.5 DAA

melting point: 138 to 139 °C
Compound: CCCN1C(=O)CCc2cc(CNS(=O)(=O)c3ccc(Cl)cc3)ccc21 [Compound 3.004, 4-chloro-N-[(2-oxo-1-propyl-3,4-dihydroquinolin-6-yl)methyl]benzenesulfonamide]
change in vivo at 500 µM [1, 3]: -17.3%
change in vivo at 500 µM [1, 4]: -12.5%
change in vivo at 500 µM [1, 5]: -14.1%
change in vivo at 500 µM [1, 6]: -12.9%
change in vivo at 500 µM [1, 7]: -11.8%
change in vivo at 500 µM [1, 8]: -10.7%
change in vivo at 500 µM [1, 9]: -12.8%

melting point: 157 to 159 °C
Compound: CCCN1C(=O)CCc2cc(CNS(=O)(=O)c3ccccc3Br)ccc21 [Compound 3.017, 2-bromo-N-[(2-oxo-1-propyl-3,4-dihydroquinolin-6-yl)methyl]benzenesulfonamide]
change in vivo at 500 µM [1, 3]: -5.8%
change in vivo at 500 µM [1, 4]: -3.1%
change in vivo at 500 µM [1, 5]: -3.1%
change in vivo at 500 µM [1, 6]: -2.5%
change in vivo at 500 µM [1, 7]: -1.8%
change in vivo at 500 µM [1, 8]: -2.1%
change in vivo at 500 µM [1, 9]: -2.7%

melting point: 129 to 133 °C
Compound: CCCN1C(=O)CCc2cc(CNS(=O)(=O)/C=C/c3cccc(Cl)c3)ccc21 [Compound 3.069, (E)-2-(3-chlorophenyl)-N-[(2-oxo-1-propyl-3,4-dihydroquinolin-6-yl)methyl]ethenesulfonamide]
change in vivo at 500 µM [1, 3]: -8.1%
change in vivo at 500 µM [1, 4]: -4.1%
change in vivo at 500 µM [1, 5]: -6.1%
change in vivo at 500 µM [1, 6]: -5.5%
change in vivo at 500 µM [1, 7]: -4.8%
change in vivo at 500 µM [1, 8]: -3.8%
change in vivo at 500 µM [1, 9]: -5%

melting point: 150 to 152 °C
Compound: CCCN1C(=O)CCc2cc(CNS(=O)(=O)/C=C/c3ccc(Br)cc3)ccc21 [Compound 3.052, (E)-2-(4-bromophenyl)-N-[(2-oxo-1-propyl-3,4-dihydroquinolin-6-yl)methyl]ethenesulfonamide]
change in vivo at 500 µM [1, 3]: -9.6%
change in vivo at 500 µM [1, 4]: -4.6%
change in vivo at 500 µM [1, 5]: -4.5%
change in vivo at 500 µM [1, 6]: -4.5%
change in vivo at 500 µM [1, 7]: -2.2%
change in vivo at 500 µM [1, 8]: -2.5%
change in vivo at 500 µM [1, 9]: -4.1%

melting point: 144 to 147 °C
Compound: CCN1C(=O)CCc2cc(CNS(=O)(=O)/C=C/c3cccc(Br)c3)ccc21 [Compound 2.070, (E)-2-(3-bromophenyl)-N-[(1-ethyl-2-oxo-3,4-dihydroquinolin-6-yl)methyl]ethenesulfonamide]
change in vivo at 500 µM [1, 3]: -8.1%
change in vivo at 500 µM [1, 4]: -4.1%
change in vivo at 500 µM [1, 5]: -6.1%
change in vivo at 500 µM [1, 6]: -5.5%
change in vivo at 500 µM [1, 7]: -4.8%
change in vivo at 500 µM [1, 8]: -3.8%
change in vivo at 500 µM [1, 9]: -5%

melting point: 190 to 191 °C
Compound: CCN1C(=O)CCc2cc(CNS(=O)(=O)c3ccc(F)cc3)ccc21 [Compound 2.009, N-[(1-ethyl-2-oxo-3,4-dihydroquinolin-6-yl)methyl]-4-fluoro-benzenesulfonamide]
change in vivo at 500 µM [2, 10]: -5.3%
change in vivo at 500 µM [2, 11]: -2%
change in vivo at 500 µM [2, 12]: -1.2%
change in vivo at 500 µM [2, 13]: -3.1%
change in vivo at 500 µM [2, 14]: -1%
change in vivo at 500 µM [2, 15]: -2.3%

melting point: 155 to 163 °C
Compound: CCN1C(=O)CCc2cc(CNS(=O)(=O)c3ccccc3F)ccc21 [Compound 2.007, N-[(1-ethyl-2-oxo-3,4-dihydroquinolin-6-yl)methyl]-2-fluoro-benzenesulfonamide]
change in vivo at 500 µM [2, 10]: -14.1%
change in vivo at 500 µM [2, 11]: -7.3%
change in vivo at 500 µM [2, 12]: -6.6%
change in vivo at 500 µM [2, 13]: -8.8%
change in vivo at 500 µM [2, 14]: -5.7%
change in vivo at 500 µM [2, 15]: -8.1%

melting point: 163 to 165 °C
Compound: CCCN1C(=O)CCc2cc(CNS(=O)(=O)c3ccccc3C)ccc21 [Compound 3.011, 2-methyl-N-[(2-oxo-1-propyl-3,4-dihydroquinolin-6-yl)methyl]benzenesulfonamide]
change in vivo at 500 µM [2, 10]: -3.6%
change in vivo at 500 µM [2, 11]: -3.6%
change in vivo at 500 µM [2, 12]: -2.3%
change in vivo at 500 µM [2, 13]: -3.6%
change in vivo at 500 µM [2, 14]: -2.4%
change in vivo at 500 µM [2, 15]: -3%

melting point: 159 to 161 °C
Compound: CCCN1C(=O)CCc2cc(CNS(=O)(=O)c3ccccc3)ccc21 [Compound 3.001, N-[(2-oxo-1-propyl-3,4-dihydroquinolin-6-yl)methyl]benzenesulfonamide]
change in vivo at 500 µM [2, 10]: -15%
change in vivo at 500 µM [2, 11]: -9.9%
change in vivo at 500 µM [2, 12]: -6.7%
change in vivo at 31.25 µM ([2]; 24 h, Table B2, rate 31.25 uM, 1 DAA a.m., read-out: % WU 1DAA AM): -6.9%
change in vivo at 31.25 µM ([2]; 24 h, Table B2, rate 31.25 uM, 1 DAA p.m., read-out: % WU 1DAA PM): -5.4%
change in vivo at 125 µM ([2]; 24 h, Table B2, rate 125 uM, 1 DAA a.m., read-out: % WU 1DAA AM): -15.7%
change in vivo at 125 µM ([2]; 24 h, Table B2, rate 125 uM, 1 DAA p.m., read-out: % WU 1DAA PM): -15.3%
change in vivo at 500 µM ([2]; 24 h, Table B2, rate 500 uM, 1 DAA a.m., read-out: % WU 1DAA AM): -36.4%
change in vivo at 500 µM ([2]; 24 h, Table B2, rate 500 uM, 1 DAA p.m., read-out: % WU 1DAA PM): -33.3%
change in vivo at 500 µM [2, 13]: -7.2%
change in vivo at 500 µM [2, 14]: -5.8%
change in vivo at 31.25 µM ([2]; 48 h, Table B2, rate 31.25 uM, 2 DAA a.m., read-out: % WU 2 DAA AM): -5.8%
change in vivo at 31.25 µM ([2]; 48 h, Table B2, rate 31.25 uM, 2 DAA p.m., read-out: % WU 2 DAA PM): -2.2%
change in vivo at 125 µM ([2]; 48 h, Table B2, rate 125 uM, 2 DAA a.m., read-out: % WU 2 DAA AM): -9.3%
change in vivo at 125 µM ([2]; 48 h, Table B2, rate 125 uM, 2 DAA p.m., read-out: % WU 2 DAA PM): -6.3%
change in vivo at 500 µM ([2]; 48 h, Table B2, rate 500 uM, 2 DAA a.m., read-out: % WU 2 DAA AM): -21.4%
change in vivo at 500 µM ([2]; 48 h, Table B2, rate 500 uM, 2 DAA p.m., read-out: % WU 2 DAA PM): -15.1%
change in vivo at 500 µM [2, 15]: -8.8%
change in vivo at 31.25 µM ([2]; 60 h, Table B2, rate 31.25 uM, cumulative total WU (0-2.5 DAA), read-out: % WU Total 0 to 2.5 DAA): -5.7%
change in vivo at 125 µM ([2]; 60 h, Table B2, rate 125 uM, cumulative total WU (0-2.5 DAA), read-out: % WU Total 0 to 2.5 DAA): -14.8%
change in vivo at 500 µM ([2]; 60 h, Table B2, rate 500 uM, cumulative total WU (0-2.5 DAA), read-out: % WU Total 0 to 2.5 DAA): -31.1%
% WU 0 DAA AM* ([2]; Table B2, rate 31.25 uM): −4.4%
% WU 0 DAA AM* ([2]; Table B2, rate 125 uM): −23.7%
% WU 0 DAA AM* ([2]; Table B2, rate 500 uM): −44.6%

melting point: 144 to 147 °C
Compound: CCCN1C(=O)CCc2cc(CNS(=O)(=O)c3ccc(Cl)s3)ccc21 [Compound 3.073, 5-chloro-N-[(2-oxo-1-propyl-3,4-dihydroquinolin-6-yl)methyl]thiophene-2-sulfonamide]
change in vivo at 500 µM [2, 10]: -44.6%
change in vivo at 500 µM [2, 11]: -54.9%
change in vivo at 500 µM [2, 12]: -52.1%
change in vivo at 500 µM [2, 13]: -53.3%
change in vivo at 500 µM [2, 14]: -48.7%
change in vivo at 500 µM [2, 15]: -51%
